Data as given in patent US20220233556A1, “COMPOSITIONS AND METHODS FOR TREATING OPHTHALMIC CONDITIONS” (Medicon Pharmaceuticals, Inc., priority 2017, published 2022).

How the values were obtained:
JNK and Erk1/2 = assay: MAPK activation by phosphorylation (immunoblots) in human conjunctival cells; type: cell-based; details: PS 3.5 h
Description: FIGS. 6A and 6B illustrate that PS suppresses the activation of NF-κB and MAPKs. In FIG. 6A, NF-κB activation was determined by EMSA in cultured human conjunctival cells stimulated with TNFα (top) and in the ILG of rabbits with Con A-induced DED and treated for one week with either vehicle or PS (bottom). In FIG. 6B, immunoblots detecting the activation of MAPKs by phosphorylation in cultured human conjunctival cells treated with PS at the indicated concentrations for 3.5 h. Loading control: β-actin.
The conjunctiva cells used express only the JNK and Erk1/2 pathways.

[1] = system: oxygen-induced retinopathy; assay: Mouse model of oxygen-induced retinopathy; type: in vivo, C57BL/6 mice; details: intravitreal 1 μl PS solution on P12, retina on P17, vs vehicle
Description: Several animal models have been explored to understand retinal vascular development. The mouse model of oxygen-induced retinopathy is the most widely used, and has played a pivotal role in our understanding of retinal angiogenesis and in the development of therapeutics such as anti-vascular endothelial growth factor injections for wet age-related macular degeneration.
C57BL/6 mice were reared in 75±2% oxygen air starting on postnatal day 7 (P7) and moved into room air on P12, when they were injected intravitreally with 1 μl of […] PS solution or vehicle. The PS solution consisted of 4.0% PS, 20% Poloxamer 407 and 12% VETPGS (d-α-tocopheryl polyethylene glycol 1000 succinate). On P17, the pups were euthanized, both eyes were enucleated and fixed with 4% paraformaldehyde (PFA). Following several intermediate steps, the retina was existed and fixed further with 4% PFA overnight. After appropriate washings, the retina was incubated with 10 μg/ml of FITC-conjugated anti-lectin antibody overnight and retina flat-mounts were prepared on glass slides and evaluated by fluorescence microscopy. The areas of the avascular, neovascular and whole retina were determined using ImageJ software.

Con A-induced dry eye = Con A-induced dry eye disease (DED) in rabbits: TBUT, tear osmolarity, STT, tear lactoferrin; type: in vivo, New Zealand White (NZW) rabbits
Description: Con A was injected under ultrasound guidance into all the lacrimal glands and the success of the injection was verified by a post-injection ultrasound image (see FIG. 1 and FIG. 2). […] This variation explains why the blind injections recommended in the original method are often unsuccessful. This was confirmed by mixing the Con A solution with methylene blue and tracking its course after injection. In about ⅓ of the cases, Con A ended up outside the gland.
Four parameters of efficacy were evaluated instead of the usual one or two. They include (a) the tear break up time (TBUT), determined using 0.2% fluorescein over the eye and recording the time taken to develop black dots, lines or obvious disruption of the fluorescein film; (b) tear osmolarity, measured using TearLab Osmolarity Test and following the manufacturer's instructions (TearLab Corp., San Diego, Calif.); (3) Schirmer tear test (STT), determined using Schirmer strips (EagleVision, Denville, N.J.) inserted between the cornea and the palpebral conjunctiva at the mid-point of the lower lid and measuring the length of moistened strip at 5 min; and (4) tear lactoferrin levels measured by ELISA kit (MyBiosource, San Diego, Calif.) following the instructions of the manufacturer. All four have been used in clinical practice and correlate with the clinical activity of the disease. The STT is the least reliable and, as result, it is clinically used less than half as frequently as TBUT.
The injections of Con A to the lacrimal glands were repeated weekly as needed. When longer than a 1-week periods of study are needed, repeat injections prolong dry eye for at least 3 weeks, making the originally acute model chronic.
PS Suppresses Con A—Induced Dry Eye in Rabbits. The effect of PS on dry eye was determined in New Zealand White (NZW) rabbits, 2-3 kg (Charles River Labs, Waltham, Mass.). These rabbits were housed singly in rooms with strict temperature (70±5° F.) and humidity (45±5%) control and acclimated for at least 2 weeks prior to induction of dry eye by injection of Con A as above. NZW rabbits with Con A-induced dry eye (three sets of injections) were treated with PS formulated as nanoparticles and administered topically as eye drops 3×/day for 21 days, starting on the day of Con A injection. […] Similar results were obtained on days 5 and 14 (data not shown). […]
The efficacy of lower concentrations of PS. The efficacy of lower concentrations of PS, 0.1% and 0.2% in DED, was also evaluated. The same animal model (rabbits with Concanavalin A-induced DED) was used. The same methodology described herein was followed, except that PS was administered as two eye drops per eye (˜25 μL each) four times a day. PS was formulated in: 10% (2-hydroxypropyl)-β-cyclodextrin, 4% Tween 80, 2.5% Vitamin E TPGS, 1.4% polyvinyl alcohol (13,000-26,000 molecular weight), 0.001% polyquad, as described herein. The Table below summarizes the corresponding findings: […]

PGE2 = PGE2 levels in tears and cornea of rabbits (ELISA); type: in vivo
Description: FIGS. 9A and 9B illustrate that PS preserves the levels of PGE2 in tears and the cornea. In FIG. 9A, PGE2 levels were determined by ELISA in tears collected on day 7 from naïve rabbits and rabbits with Con A-induced DED treated for 1 week with vehicle or PS. In FIG. 9B, PGE2 levels were further examined. Upper panel: PGE2 levels in the tears of naïve rabbits and rabbits with Con A-induced DED treated for 1 h with PS or ketorolac as in Methods. Lower panel: PGE2 levels in the corneal tissue of naïve rabbits and rabbits with Con A-induced DED treated for 1 week with vehicle or PS or ketorolac or diclofenac. n=8 eyes/group. Values=mean±SEM.
It was determined that the levels of PGE2 in rabbit tears in three groups of rabbits, naïve and those with Con A-induced DED that were treated for 1 week either with PS or vehicle.
In an acute experiment, administered once topically to the eyes of four groups of rabbits with Con A-induced DED was one of the following: vehicle, PS, ketorolac or diclofenac; the latter two are NSAIDs used for the treatment of ocular inflammation and pain. It was determined that the levels of PGE2 in the cornea of these rabbits obtained 1 h later as well as in the corneas of naïve rabbits.

[2] = 1 week of treatment, comparison with ophthalmic NSAIDs (FIG. 5)
[3] = PS 0.1%, two eye drops four times a day, Baseline, mean ± SEM (n = 12)
[4] = PS 0.1%, two eye drops four times a day, Day 5, mean ± SEM (n = 12)
[5] = PS 0.2%, two eye drops four times a day, Baseline, mean ± SEM (n = 12)
[6] = PS 0.2%, two eye drops four times a day, Day 5, mean ± SEM (n = 12)
[7] = PS nanoparticles, eye drops 3x/day for 21 days

## CCOP(=O)(OCC)OCCCCOC(=O)CC1=C(C)/C(=C/c2ccc([S+](C)[O-])cc2)c2ccc(F)cc21 (centres unmarked) [PS, phosphosulindac]
JNK and Erk1/2
  activation by phosphorylation of JNK and Erk1/2: profoundly suppressed
[1]
  inhibition of peripheral neovascularization: 36%
  reduction of central avascular area: 51%
Con A-induced dry eye; [2]
  STT: no significant effect
  TBUT: normalized
  osmolarity: normalized
Con A-induced dry eye; [3]
  STT: 16.4 ± 1.5 mm
  TBUT: 57.9 ± 1.5 s
Con A-induced dry eye; [4]
  STT: 12.0 ± 0.8 mm
  TBUT: 45.4 ± 5.2 s
Con A-induced dry eye; [5]
  STT: 15.9 ± 1.0 mm
  TBUT: 57.9 ± 2.1 s
Con A-induced dry eye; [6]
  STT: 11.8 ± 0.9 mm
  TBUT: 45.7 ± 4.5 s
Con A-induced dry eye; [7]
  TBUT: restored to normal
  tear lactoferrin levels: restored to normal
  tear osmolarity: restored to normal
Con A-induced dry eye; PS nanoparticles, eye drops 3x/day for 21 days, difference from vehicle significant only for trend
  STT value: improved
PGE2; rabbits with Con A-induced DED treated 1 week
  PGE2 levels in tears: slightly lower than (but not significantly different from) those of naïve rabbits
PGE2; rabbits with Con A-induced DED, administered once topically, 1 h later
  PGE2 levels in the cornea: no different than those of vehicle-treated and naïve rabbits
